# Assay results: patent publication US20220324809A1, “ATP-REGULATED POTASSIUM CHANNEL OPENERS AND USES THEREOF” (SALZMAN GROUP LTD., priority 2019, published 2022)
# Assays:
# Assay type in all cases: in vivo, Sprague-Dawley rats
# [1] = test system: MCT-induced PH; test: Intratracheal aerosolized R-1703 in rat treatment model of MCT-induced PH: sustained effect
# Description: Intratracheal aerosolized R-1703 is effective in a rodent treatment model of MCT-induced PH: Sustained effect. 28 days after injection of MCT (60 mg/kg SC) and development of severe and stable PH, mechanically ventilated and anaesthetized Sprague-Dawley rats were dosed IT with aerosolized solution (2.0 mL) delivering 0.6, 6.0, or 30 micrograms per kg of R-1703 in PBS. Vehicle controls received an equivalent volume of PBS. MCT induced a large increase in MPAP.
# [2] = test system: MCT-induced PH; test: Intratracheal aerosolized R-1703 in rat treatment model of MCT-induced PH: acute effect
# Description: Intratracheal (IT) aerosolized R-1703 is effective in a rodent treatment model of MCT-induced PH: Acute effect. 28 days after injection of MCT (60 mg/kg SC) and development of severe and stable PH, mechanically ventilated and anaesthetized Sprague-Dawley rats were dosed IT with aerosolized solution (2.0 mL) containing 500 or 5000 ng/mL of R-1703 in PBS. Vehicle controls received an equivalent volume of PBS. MCT induced a large increase in MPAP.
# [3] = test system: MCT-induced PH; test: Prophylactic daily IP R-1703 in rat model of MCT-induced PH; settings: 50 micrograms per kg IP daily, measured 28 days post-MCT, p<0.001, FIG. 4
# Description: Sprague-Dawley rats (n=3 per group) were treated with a single SC injection of MCT with 60 mg/kg or an equivalent volume of saline (2 mL/kg). Rats were then treated daily with 50 micrograms per kg of R-1703 by an intraperitoneal (IP) route of administration. After a post-MCT period of 28 days wherein vehicle control treated rats develop severe and stable PH, rats were anesthetized and endotracheally intubated.
# [4] = test system: MCT-induced PH; test: Single IV administration of R-1703 in rat treatment model of MCT-induced PH (acute and sustained effect)
# Text: An established rat model for PH utilizes monocrotaline (MCT), a toxin derived from plants of the Crotalaria species, which causes pulmonary arterial endothelial cell injury and subsequent pulmonary artery smooth muscle hypertrophy. This model serves as a tool for assessing an immediate vasorelaxation effect by monitoring real-time right ventricular pressure in rats with PAH (late intervention regimen), as well as assessment of efficacy in a prevention of vascular remodeling progression (early intervention regimen). In the latter mode, weight ratios of left and right ventricles and histopathological assessment of right ventricular hypertrophy are used to evaluate the extent of fibrosis. R-1703 is effective in acutely treating a rodent model of MCT-induced PH. Sprague-Dawley rats (n=3 per group) were treated with a single subcutaneous (SC) injection of MCT with 60 mg/kg or an equivalent volume of saline (2 mL/kg). After a post-MCT period of 28 days wherein rats developed severe and stable PH, rats were anesthetized and endotracheally intubated, followed by a single intravenous (IV) administration of R-1703 (15, 30, 60, and 90 μg/kg, in PBS) via the tail vein. Vehicle controls received an equivalent volume of PBS. MCT induced a large increase in MPAP (from 25 to 50 mmHg). […] The experiments shown below have been repeated three times and are reproducible.
# [5] = IT aerosol 0.6, 6.0 or 30 micrograms per kg
smiles,measurement,setting,value
CCC(C)(C)N/C(=N\C#N)Nc1cncc(C(=O)NCCO)c1 [R-1703],effect on heart rate,[1]; [5],no effect
same,effect on peripheral blood pressure,[1]; [5],no effect
same,effect on MCT-induced elevation in MPAP,"[1]; IT aerosol delivering 0.6, 6.0 or 30 micrograms per kg, sustained effect, p<0.001, FIG. 3",dose-dependently reduced the MCT-induced elevation in MPAP
same,effect on heart rate,[2]; IT aerosol 500 or 5000 ng/mL,no effect
same,effect on peripheral blood pressure,[2]; IT aerosol 500 or 5000 ng/mL,no effect
same,effect on MCT-induced elevation in MPAP,"[2]; IT aerosolized solution 2.0 mL, 500 or 5000 ng/mL, acute effect, p<0.001, FIG. 2",dose-dependently reduced the MCT-induced elevation in MPAP
same,restoration of normal pressures (MPAP),[3],80%
same,effect on heart rate,[4]; IV 15-90 μg/kg,no effect
same,effect on peripheral blood pressure,[4]; IV 15-90 μg/kg,no effect
same,persistence of effect on MPAP post dose,"[4]; IV, FIG. 1B",at least 24 h
same,persistence of effect on MPAP after administration,"[4]; IV, FIG. 1B legend",at least 24 hours
same,effect on MCT-induced elevation in MPAP,"[4]; single IV 15, 30, 60, 90 μg/kg in PBS, 28 days post-MCT",dose-dependently reduced the MCT-induced elevation in MPAP
same,restoration of normal pressures (MPAP),"[4]; single IV dose 90 μg/kg, 28 days post-MCT, p<0.000005, FIG. 1A",100%
